This note sets out measurements from ChEMBL document CHEMBL4184117, “Design, synthesis and anti-malarial activities of synthetic analogs of biselyngbyolide B, a Ca2+ pump inhibitor from marine cyanobacteria” (Bioorg Med Chem Lett, 2018).

Bounds are passed on as bounds.

In test [1] the test system is Plasmodium falciparum. Put plainly: Antimalarial activity against chloroquine-resistant Plasmodium falciparum K1 infected in human type A+ erythrocytes assessed as growth inhibition after 72 hrs by LDH assay. The following applies: K1, 72 h. It is filed as functional, organism-based.
The target of test [2] is Sarcoplasmic/endoplasmic reticulum calcium ATPase 1 (Homo sapiens, UniProt O14983). In words: Inhibition of SERCA1a (unknown origin) ATPase activity.
For test [3], the system named is Plasmodium falciparum. In words: Antimalarial activity against chloroquine-sensitive Plasmodium falciparum FCR3 infected in human type A+ erythrocytes assessed as growth inhibition after 72 hrs by LDH assay. It is filed as functional, organism-based. Particulars: FCR3, 72 h.
For another test, the system named is HeLa. Put plainly: Growth inhibition of human HeLa cells after 72 hrs by MTT assay. It is filed as cell-based.
Another test deals with MRC5. In words: Growth inhibition of human MRC5 cells after 7 days by MTT assay. The following applies: MRC5, 168 h. It is filed as cell-based. A general note: Tetrazolium dyes change colour on reduction, which living cells bring about.
The subject of test [4] is Plasmodium falciparum. Put plainly: Antimalarial activity against Plasmodium falciparum 3D7. It is filed as functional, organism-based.
The test system of test [5] is Plasmodium falciparum. In words: Antimalarial activity against Plasmodium falciparum FcB1. It is filed as functional, organism-based. Particulars: FcB1/Columbia.

Sequence of Sarcoplasmic/endoplasmic reticulum calcium ATPase 1 (O14983 whole entry): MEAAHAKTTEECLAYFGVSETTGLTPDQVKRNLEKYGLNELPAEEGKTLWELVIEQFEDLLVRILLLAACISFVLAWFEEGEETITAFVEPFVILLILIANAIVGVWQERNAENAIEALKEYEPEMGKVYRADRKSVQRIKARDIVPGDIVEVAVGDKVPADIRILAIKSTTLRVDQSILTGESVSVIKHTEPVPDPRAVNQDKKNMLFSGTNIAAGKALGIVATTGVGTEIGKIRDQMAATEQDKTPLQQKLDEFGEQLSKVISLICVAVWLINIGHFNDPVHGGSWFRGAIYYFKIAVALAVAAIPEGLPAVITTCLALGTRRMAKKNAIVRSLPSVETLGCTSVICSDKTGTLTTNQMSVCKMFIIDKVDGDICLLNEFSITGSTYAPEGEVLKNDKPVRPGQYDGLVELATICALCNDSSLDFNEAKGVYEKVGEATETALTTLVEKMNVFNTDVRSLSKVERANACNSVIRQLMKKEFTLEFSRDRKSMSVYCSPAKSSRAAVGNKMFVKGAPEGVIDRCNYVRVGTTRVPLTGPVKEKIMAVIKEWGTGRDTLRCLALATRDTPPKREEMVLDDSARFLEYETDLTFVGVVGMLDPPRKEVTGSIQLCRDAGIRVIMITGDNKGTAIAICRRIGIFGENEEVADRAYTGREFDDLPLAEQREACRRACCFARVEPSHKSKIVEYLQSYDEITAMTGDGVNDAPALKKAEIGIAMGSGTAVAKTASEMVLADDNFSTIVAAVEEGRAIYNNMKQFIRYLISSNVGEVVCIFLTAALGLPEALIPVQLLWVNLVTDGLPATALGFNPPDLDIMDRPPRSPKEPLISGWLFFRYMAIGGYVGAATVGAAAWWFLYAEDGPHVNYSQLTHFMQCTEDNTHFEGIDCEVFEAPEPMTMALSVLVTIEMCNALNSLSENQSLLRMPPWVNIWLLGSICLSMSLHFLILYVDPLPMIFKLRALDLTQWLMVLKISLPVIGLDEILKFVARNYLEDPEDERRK

Turning to `C/C=C/C/C(C)=C\[C@H]1C/C=C/C=C/C[C@H](C)/C=C(\C)[C@@H](OC)C/C=C/[C@@H](O[C@@H]2O[C@H](CO)[C@@H](O)[C@H](OC)[C@H]2O)CC(=O)O1`, the IC50 in the test on Plasmodium falciparum [1] worked out at 3.4 µM; with Plasmodium falciparum [3] it was 4.4 µM; in the test with HeLa, 2.5 µM; in the test on MRC5, 400 nM. Besides, in test [2], the inhibition constant Ki was 19 nM.
Turning to `CO[C@H]1C/C=C/[C@@H](O)CC(=O)O[C@@H](/C=C(/C)CNC(C)=O)C/C=C/C=C/C[C@H](C)/C=C/1C`, the IC50 with Plasmodium falciparum [1] is 19 µM; in the test on Plasmodium falciparum [3], 14 µM; with HeLa, 4.9 µM; with MRC5 it was 3000 nM.
As for `CO[C@H]1C/C=C/[C@@H](O)CC(=O)O[C@@H](/C=C(/C)CO)C/C=C/C=C/C[C@H](C)/C=C/1C`, the 50% inhibitory concentration (IC50) was > 31 µM in the test with Plasmodium falciparum [1], 24 µM with Plasmodium falciparum [3], > 30 µM in the test on HeLa and 19000 nM in the test with MRC5.
For `CCNC(=O)/C(C)=C\[C@H]1C/C=C/C=C/C[C@H](C)/C=C(\C)[C@@H](OC)C/C=C/[C@@H](O)CC(=O)O1` the same measures were 16 µM, 17 µM, 9.2 µM and 2900 nM.
For `CC(=O)C1=C(O)[C@@H]2[C@H]3c4c[nH]c5cccc(c45)C[C@H]3C(C)(C)N2C1=O` [CYCLOPIAZONIC ACID], in test [2], the inhibition constant Ki worked out at 1800 nM. Further, the IC50 with Plasmodium falciparum [4] was 8.8 µM; in the test with Plasmodium falciparum [5], 4.9 µM.
`C/C=C(/C)C(=O)O[C@H]1C(C)=C2[C@H]([C@@H]1OC(=O)CCCCCCC)[C@@](C)(OC(C)=O)C[C@H](OC(=O)CCC)[C@@]1(O)[C@H]2OC(=O)[C@@]1(C)O` [THAPSIGARGIN]: the inhibition constant (Ki) in test [2] is 0.1 nM.
For the molecule `C/C=C/C/C(C)=C\[C@H]1C/C=C/C=C/C[C@H](C)/C=C(\C)[C@@H](OC)C/C=C/[C@@H](O)CC(=O)O1`, the IC50 was 24 µM with Plasmodium falciparum [1], 23.5 µM with Plasmodium falciparum [3], 0.0028 µM in the test on HeLa and 230 nM in the test with MRC5. For the same molecule, the inhibitory constant (Ki) in test [2] was 17 nM.

Usually IC50 stands for the concentration that gives 50% inhibition. Broadly, the Ki is a measure of affinity in units of concentration, obtained from inhibition or displacement.
